The record followed here is the NIST ThermoML archive (doi:10.1021/je049878m).

Numbers after ± are expanded uncertainties.

For this data set the following is noted: Crystal.
`CC(=O)Nc1ccc(C)cc1` [1-acetamido-4-methylbenzene]: the Normal melting temperature was found to be 151 ± 1 °C.
As for `COc1cc(OC)c(C(=O)O)cc1OC` [2,4,5-trimethoxybenzoic acid], the Normal melting temperature is 144.8 ± 1 °C.
Regarding `Nc1ccccc1O` [2-hydroxybenzenamine], the Normal melting temperature amounted to 174.5 ± 1 °C.
As to `COc1cc(C(=O)O)cc(OC)c1OC` [3,4,5-trimethoxybenzoic acid], the Normal melting temperature worked out at 171.4 ± 1 °C.
Turning to `Nc1cccc(O)c1` [3-hydroxybenzenamine], the Normal melting temperature was 123.7 ± 1 °C.
Turning to `CC(=O)Nc1ccccc1C` [o-acetotoluide], the Normal melting temperature was determined as 109.6 ± 1 °C.
